{"source": "paper PMC6743424", "about": "“Phenolic acid phenethylesters and their corresponding ketones: Inhibition of 5‐lipoxygenase and stability in human blood and HepaRG cells” (Pharmacology Research & Perspectives, 2019)", "key": {"[1]": {"design": "method as in PMID 17394337, PMID 15358316, PMID 19544289", "details": "carboxylesterase; cited from earlier work"}, "HepaRG cells": {"system": "HepaRG cells", "assay": "Residual inhibition of 5‐LO product biosynthesis in blood after incubation with HepaRG cells", "type": "in vitro ADME, human", "details": "for Inhibitory activity against 5‐LO product biosynthesis after incubation with HepaRG cells: 50 µmol/L with HepaRG cells, after 60 minutes, medium added to blood, zymosan, LTB4", "procedure": "Differentiated HepaRG cells, plated in 24 well plates, were washed with hepatocyte suspension medium (Williams E‐medium without phenol red, supplemented with 2 mmol/L Glutamax and […] HEPES) before addition of hepatocyte suspension medium (250 µL/well) containing (30 or 50 µmol/L) of the test compounds or their diluent. Cells were then incubated for 7.5, 15, 30, 60 or 90 minutes at 37°C after which the medium was removed.\nIn experiments where the inhibitory capacity of test compounds was to be determined after incubation with HepaRG cells, 125 µL of the hepatocyte suspension medium containing test compounds that had been collected at different time points from HepaRG cultures was added to 1 mL of heparinized blood. After a 5 minutes of preincubation, blood was then stimulated with opsonized zymosan and processed for HPLC analysis of 5‐LO metabolites as described above.\nFigure 6 Stability of the test compounds for the inhibition of the biosynthesis of 5‐LO products following incubation with HepaRG cells. HepaRG cells were incubated with […] of hepatocyte suspension medium containing 50 µmol/L of test compounds for the indicated times at 37°C. Hepatocyte suspension medium (125 µL) was then removed and added to 1 mL of blood that was then incubated for 5 minutes and then stimulated with opsonized zymosan (4 mg/mL) for 30 minutes at 37°C. Blood was then centrifuged and plasma was collected and added to 1.2 mL of CH3OH:CH3CN (1:1). Samples were processed for analysis using RP‐HPLC for LTB4 quantification. Data are expressed as means ± SEM of at least three independent experiments. *Difference from time = 0, as determined using One‐way ANOVA with Dunnett's multiple comparison test (P < .05)"}, "5‐LO [2]": {"target": "T1, 5‐LO (Homo sapiens, UniProt P09917)", "T1 sequence (P09917 1-674)": "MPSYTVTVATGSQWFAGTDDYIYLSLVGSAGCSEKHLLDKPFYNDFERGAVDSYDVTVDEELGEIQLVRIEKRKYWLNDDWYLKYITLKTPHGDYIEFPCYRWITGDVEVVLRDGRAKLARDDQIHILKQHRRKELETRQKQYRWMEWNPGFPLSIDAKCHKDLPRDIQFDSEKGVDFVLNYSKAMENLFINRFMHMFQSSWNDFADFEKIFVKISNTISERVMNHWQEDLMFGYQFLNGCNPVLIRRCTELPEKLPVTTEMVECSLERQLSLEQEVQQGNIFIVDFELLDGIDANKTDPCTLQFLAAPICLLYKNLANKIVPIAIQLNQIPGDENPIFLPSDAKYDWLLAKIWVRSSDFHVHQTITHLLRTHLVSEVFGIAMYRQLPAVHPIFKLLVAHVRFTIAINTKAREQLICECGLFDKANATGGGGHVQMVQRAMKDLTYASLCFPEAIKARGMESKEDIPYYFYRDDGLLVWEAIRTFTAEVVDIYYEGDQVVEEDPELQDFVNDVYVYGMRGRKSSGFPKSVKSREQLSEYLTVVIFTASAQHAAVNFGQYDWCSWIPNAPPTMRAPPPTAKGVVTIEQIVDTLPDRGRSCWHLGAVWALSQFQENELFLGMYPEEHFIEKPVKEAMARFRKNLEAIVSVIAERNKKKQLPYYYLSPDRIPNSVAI", "design": "endogenous in cells; host or cells: human polymorphonuclear leukocytes isolated from heparinized blood; method as in PMID 22347509, PMID 28680195", "details": "read-out: IC50 of LT biosynthesis in whole blood; cited from earlier work"}, "5‐LO [3]": {"target": "T1, 5‐LO", "design": "endogenous in cells; host or cells: human polymorphonuclear leukocytes isolated from heparinized blood; method as in PMID 22347509, PMID 28680195", "details": "read-out: IC50 of LT biosynthesis in isolated human neutrophils; cited from earlier work"}, "[4]": {"design": "method as in PMID 17394337, PMID 15358316, PMID 19544289", "details": "oral administration to rats; cited from earlier work"}, "5‐LO [5]": {"target": "T1, 5‐LO", "assay": "Biosynthesis of 5‐LO products in stimulated HEK293 cells expressing 5‐LO and FLAP", "type": "cell-based", "design": "expressed in transfected cells; host or cells: HEK293 cells (ATCC), stably transfected", "details": "1 μmol/L, 5 min preincubation; 10 μmol/L A23187 + 10 μmol/L arachidonic acid 15 min", "procedure": "HEK293 cells were obtained from ATCC (Manassas) and were cultured in Dulbecco’s Modified Eagle Medium (DMEM) supplemented with 10% fetal bovine serum. Cells were stably transfected with 5‐lipoxygenase and 5‐lipoxygenase activating protein (FLAP) as previously described.31\nTransfected HEK293 cells were collected and resuspended in Hank's balanced salt solution (HBSS, Lonza) containing 1.6 mmol/L CaCl2 at a concentration of 5 × 10^5 cells/mL, and were preincubated with each compound at concentration of 1 µmol/L for 5 minutes at 37°C. Cells were then stimulated for 15 minutes at 37°C with the addition of 10 µmol/L calcium ionophore A23187 (Sigma‐Aldrich) and 10 µmol/L arachidonic acid (Cayman Chemical).28 Stimulations were stopped by adding 0.5 volume of cold CH3OH:CH3CN (1:1) containing 100 ng/mL of prostaglandin B2 (PGB2) as internal standard. Samples were stored at −20°C and analyzed for 5‐LO products using reversed‐phase high‐performance liquid chromatography (RP‐HPLC) as described previously.32\nFigure 2 The structures of the tested compounds (A) and their effects on the biosynthesis of 5‐LO products in transfected HEK293 cells (B). HEK293 cells expressing 5‐LO and FLAP were incubated in presence of the indicated compounds (1 μmol/L) or their diluent (Control, 0.1% DMSO) for 5 minutes, followed by the addition of 10 μmol/L calcium ionophore A23187 and 10 μmol/L arachidonic acid for 15 minutes. Reactions were then stopped, and samples were processed for analysis of 5‐LO products using RP‐HPLC. Total 5‐LO products measured represent the sum of LTB4, its trans isomers and 5‐hydroxyeicosatetraenoic acid. Data are expressed as means ± SEM of at least three independent experiments. *Difference from control as determined using one‐way ANOVA with Dunnett's multiple comparison test (P < .05)"}}, "note": "Where two headings read alike, the source gives them in different places."}
{"smiles": "O=C(/C=C/c1ccc(O)c(O)c1)OCCc1ccccc1", "note": "[CAPE (2), caffeic acid phenethyl ester, reference compound]", "values": [{"measurement": "Stability in rat plasma", "setting": "[1]", "result": "rapidly hydrolyzed to caffeic acid"}, {"measurement": "Inhibitory activity against 5‐LO product biosynthesis after incubation with HepaRG cells", "setting": "HepaRG cells", "result": "lost all their inhibitory activity"}, {"measurement": "IC50", "setting": "5‐LO [2]", "result": 1800, "unit": "nM"}, {"measurement": "IC50", "setting": "5‐LO [3]", "result": 500, "unit": "nM"}, {"measurement": "Major metabolite in urine", "setting": "[4]", "result": "caffeic acid"}]}
{"smiles": "O=C(/C=C/c1cc(O)ccc1O)OCCc1ccccc1", "note": "[compound 5]", "values": [{"measurement": "Inhibitory activity against 5‐LO product biosynthesis after incubation with HepaRG cells", "setting": "HepaRG cells", "result": "lost all their inhibitory activity"}, {"measurement": "Inhibition of biosynthesis of 5‐LO products in transfected HEK293 cells", "setting": "5‐LO [5]", "result": "very good inhibitory activity"}]}
{"smiles": "O=C(/C=C/c1ccc(O)c(O)c1)CCCc1ccccc1", "note": "[compound 7]", "values": [{"measurement": "Inhibitory activity against 5‐LO product biosynthesis after incubation with HepaRG cells", "setting": "HepaRG cells", "result": "lost all their inhibitory activity"}]}
{"smiles": "O=C(/C=C/c1cc(O)ccc1O)CCc1ccccc1", "note": "[compound 8]", "values": [{"measurement": "Inhibitory activity against 5‐LO product biosynthesis after incubation with HepaRG cells", "setting": "HepaRG cells", "result": "lost all their inhibitory activity"}]}
{"smiles": "COc1cc(/C=C/C(=O)CCc2ccccc2)cc(OC)c1O", "note": "[compound 10, sinapic acid phenethyl ketone]", "values": [{"measurement": "Inhibitory activity against 5‐LO product biosynthesis after incubation with HepaRG cells", "setting": "HepaRG cells", "result": "maintained significant inhibition"}, {"measurement": "Inhibitory activity retained after incubation in HepaRG cultures", "setting": "HepaRG cells; after up to one hour of incubation", "result": 50, "unit": "%"}]}
